Experimental data as given in patent US4560545A, “Basic aluminum magnesium carbonate” (Anphar S.A., priority 1978, dated 1985).
Where two headings read alike, the source gives them in different places.

How the values were obtained:
[1] = Procedure: The ability of compound I to absorb bile acids was measured at pH 7 and pH 4 (the analytical method was based on the reaction between sulphuric acid, furfural and cholic acid; Pettenkofer, Ann. Chem. Pharm. 52, 90, 1884). The product was suspended in the appropriate buffer and a solution of the bile acid or ox bile was added, samples being taken at intervals of time.
ulcers [2] = experiment: bile-sensitized stomach, ulcerogenic action of indomethacin; details: rat stomach sensitized with bile, 31.25-125 mg/kg orally
From the text: (§1) In a further series of experiments the detergent action of bile was used to sensitize the rat stomach to the ulcerogenic action of indomethacin.

[3] = 4 hour pyloric ligature of the stomach: pH and total acid content of stomach contents; details: rats, 31.25-500 mg/kg orally 1 hour before sacrifice
From the text: as §1

[4] = antacid activity in simulated gastric juice (modified Holbert technique, automatic titrator); type: physicochemical; details: for Vol. of gastric juice added: added at 0.7 ml/min. until pH fell below 3; for pH of suspension after 1 min.: about 0.125 g powder in 20 ml, 37° C.
Procedure: Approximately 0.125 g of powder was added to 20 ml of simulated gastric juice (U.S.P.) and stirred vigorously at 37° C. The pH was registered at 1, 5 and 10 minutes and then the automatic burette was started and synthetic gastric juice was added at a rate of 0.7 ml/min. until the pH fell below 3. The time taken and the amount of gastric juice added to reach pH 3 was observed.

[5] = pH stat, pH 4, suspension in water
ulcers [6] = experiment: 18 hour pyloric ligature: incidence of ulcers; type: in vivo; details: rats, 18 hours ligature
gastric acid secretion = details: human volunteers, pentagastrin 6 μg/kg i.m., 1 g suspension 30 minutes later, versus aluminium hydroxide gel
Procedure: Gastric acid secretion was induced by injection of pentagastrin (6 μg/kg i.m.). Thirty minutes later a suspension of 1 g of compound I or aluminium hydroxide was given (2 groups of 6 volunteers, double blind parallel). Samples of gastric juice were taken before giving pentagastrin (basal level), 30 minutes after injection of pentagastrin and at intervals of 30, 60, 90 and 120 minutes after giving the antacids. In each case the pH, free acid content and pepsin content were measured.

pepsin = details: rats, 4 hour ligature; for reduction of pepsin enzyme activity of gastric juice: at the higher doses
From the text: as §1

[7] = gastric juice DP, double quantity of pepsin
[8] = gastric juice DP, with double quantity of pepsin
[9] = gastric juice N, normal U.S.P. simulated gastric juice
[10] = gastric juice SP, without pepsin

Row | Compound | reduction of the incidence of ulcers (inhibition) (ulcers [2]) | effect on pH of the stomach contents [3] | reduction of total acid content [3] | Vol. of gastric juice added [4, 7] | pH of suspension after 1 min. [4, 8] | pH of suspension after 1 min. [4, 9] | Vol. of gastric juice added ([4]; gastric juice N, normal U.S.P.) | pH of suspension after 1 min. [4, 10] | Vol. of gastric juice added [4, 10] | reduction of pepsin enzyme activity of gastric juice (pepsin) | further results
1 | basic aluminium magnesium carbonate [compound I] | up to 54% | dose dependent increases in the pH of the stomach contents | up to 85% | 22.36 mL | 4.55 | 4.25 | 21.2 mL | 4.00 | 10.9 mL | 78.9% | Percentage absorption of bile acids ([1]; Cholic Acid, Buffer pH 4, 1 hr): 80.5 Percentage; Percentage absorption of bile acids ([1]; Cholic Acid, Buffer pH 4, 3 hr): 86.3 Percentage; Percentage absorption of bile acids ([1]; Cholic Acid, Buffer pH 7, 1 hr): 0 Percentage; Percentage absorption of bile acids ([1]; Cholic Acid, Buffer pH 7, 3 hr): 12 Percentage; Percentage absorption of bile acids ([1]; Ox bile, Buffer pH 4, 1 hr): 69.0 Percentage; Percentage absorption of bile acids ([1]; Ox bile, Buffer pH 4, 3 hr): 70.0 Percentage; Percentage absorption of bile acids ([1]; Ox bile, Buffer pH 7, 1 hr): 17.3 Percentage; Percentage absorption of bile acids ([1]; Ox bile, Buffer pH 7, 3 hr): 25.8 Percentage; Percentage absorption of bile acids ([1]; Taurocholic acid, Buffer pH 4, 1 hr): 65.4 Percentage; Percentage absorption of bile acids ([1]; Taurocholic acid, Buffer pH 4, 3 hr): 71.7 Percentage; Percentage absorption of bile acids ([1]; Taurocholic acid, Buffer pH 7, 1 hr): 0.6 Percentage; Percentage absorption of bile acids ([1]; Taurocholic acid, Buffer pH 7, 3 hr): 20.8 Percentage; buffering capacity ([4]; U.S.P. simulated gastric juice): highest buffering capacity; velocity of neutralisation ([4]; pH after 1 minute in the optimal zone, pH 3-5): high velocity of neutralisation; ability to absorb acid in the presence of pepsin ([4]; simulated gastric juice with pepsin versus without): increased ability to absorb acid in the presence of pepsin; acid-binding capacity [5]: higher at pH 4 than any of the other substances; reduction in the incidence of ulcers compared with placebo treated controls (ulcers [6]; 31.25 mg/kg orally at the same time as the operation): 58%; antipepsin effect (pepsin content of gastric juice) (gastric acid secretion): greater antipepsin effect; reduction of free hydrochloric acid levels in gastric juice (gastric acid secretion): reduced the free hydrochloric acid levels more rapidly and had a longer duration of action than aluminium hydroxide gel; reduction of pepsin enzyme activity, pH of the gastric juice readjusted to 2 (pepsin; higher doses, pH readjusted to 2 (optimal for pepsin activity)): 32.5%
2 | dry aluminium hydroxide gel U.S.P. [F1] |  |  |  | 4.80 mL | 2.79 | 2.93 | 7.40 mL | 3.30 | 17.43 mL |  | 
3 | Magaldrate U.S.P. [F2] |  |  |  | 2.40 mL | 2.65 | 1.95 | 1.70 mL | 1.40 | 1.92 mL |  | 
4 | [OH][Al]([OH])[OH] [aluminium hydroxide, reference compound] | 32% | much less influence on pH | 12% |  |  |  |  |  |  | without effect on the pepsin activity | reduction in ulceration (ulcers [6]; 125 mg/kg): 43%
